Data as given in ChEMBL document CHEMBL1201862, “PubChem BioAssay data set” (2004).
Calls of active or inactive are those of the source.

What was measured:
[1] = inhibitors of Vif binding to APOBEC3G peptide, primary screen, biochemical, TR-FRET, GST-Vif 1-94, biotin-A3G peptide, dose response retest (AID 1117319); format: functional;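 note: TR-FRET signal of purified GST-Vif binding a biotinylated A3G peptide; inhibitors lower the FRET signal by blocking Vif and A3G binding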
[2] = molecular target: Eukaryotic translation initiation factor 4H (Homo sapiens, UniProt Q15056); assay: human eIF4H binding inhibitors, primary screen, translation initiation inhibitor project, biochemical, uHTS, fluorescence polarization (AID 2012)
[3] = molecular target: Polyadenylate-binding protein 1 (Homo sapiens, UniProt P11940); assay: PABP poly(A) RNA binding inhibitors, primary screen, biochemical, fluorescence polarization, uHTS (AID 2014)
[4] = molecular target: T1, DNA dC->dU-editing enzyme APOBEC-3G (Homo sapiens, UniProt Q9HC16); assay: Dose Response confirmation of small molecule APOBEC3G DNA Deaminase Inhibitors via a fluorescence-based single-stranded DNA deaminase assay. [Related pubchem assays (depositor defined):AID493012, AID493028]; format: functional
[5] = molecular target: FAD-linked sulfhydryl oxidase ALR (Homo sapiens, UniProt P55789); assay: inhibitors of human ALR sulfhydryl oxidase, dose response, biochemical, H2O2 detection, luminescence, cherry-pick (AID 493248)
[6] = molecular target: T2, Short transient receptor potential channel 4 (Mus musculus, UniProt Q9QUQ5); assay: mouse TRPC4 channel activators, dose response, cell-based, HEK293 TRPC4/mu-opioid, Fluo-4 calcium (AID 434937); format: functional
T2 sequence (Q9QUQ5 whole entry): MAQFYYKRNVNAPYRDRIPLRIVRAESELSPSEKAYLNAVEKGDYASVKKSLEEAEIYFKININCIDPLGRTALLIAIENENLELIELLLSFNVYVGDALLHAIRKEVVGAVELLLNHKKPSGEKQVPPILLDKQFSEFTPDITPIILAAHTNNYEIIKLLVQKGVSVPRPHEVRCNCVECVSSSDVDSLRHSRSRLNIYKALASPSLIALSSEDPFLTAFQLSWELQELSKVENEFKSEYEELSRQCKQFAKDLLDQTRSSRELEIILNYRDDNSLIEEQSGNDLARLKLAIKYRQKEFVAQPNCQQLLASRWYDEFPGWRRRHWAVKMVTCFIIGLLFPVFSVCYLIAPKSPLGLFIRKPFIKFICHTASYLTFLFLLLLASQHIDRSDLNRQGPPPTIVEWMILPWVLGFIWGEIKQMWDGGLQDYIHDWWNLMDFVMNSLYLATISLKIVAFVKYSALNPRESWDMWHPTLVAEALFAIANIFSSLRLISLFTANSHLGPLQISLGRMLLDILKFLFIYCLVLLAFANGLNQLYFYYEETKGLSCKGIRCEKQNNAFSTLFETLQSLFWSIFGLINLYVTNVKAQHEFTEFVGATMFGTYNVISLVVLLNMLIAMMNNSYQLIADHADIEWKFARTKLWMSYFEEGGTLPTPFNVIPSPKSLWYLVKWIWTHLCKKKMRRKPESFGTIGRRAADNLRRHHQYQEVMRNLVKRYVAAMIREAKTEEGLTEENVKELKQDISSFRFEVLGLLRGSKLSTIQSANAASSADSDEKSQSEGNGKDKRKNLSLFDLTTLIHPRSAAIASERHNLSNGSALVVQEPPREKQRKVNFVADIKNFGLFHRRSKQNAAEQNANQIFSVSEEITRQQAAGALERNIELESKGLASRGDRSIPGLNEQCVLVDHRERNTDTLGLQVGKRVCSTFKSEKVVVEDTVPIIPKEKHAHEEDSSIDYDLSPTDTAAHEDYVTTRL

[7] = molecular target: G-protein coupled receptor 55 (Homo sapiens, UniProt Q9Y2T6); assay: GPR55 agonists via beta-arrestin recruitment, primary screen, imaging, U2OS cells, beta-arrestin-GFP redistribution (AID 1961); format: functional
[8] = molecular target: DNA dC->dU-editing enzyme APOBEC-3A (Homo sapiens, UniProt P31941); assay: Dose Response confirmation of small molecule APOBEC3A DNA Deaminase Inhibitors via a fluorescence-based single-stranded DNA deaminase assay. [Related pubchem assays (depositor defined):AID493011, AID493024]; format: functional
[9] = molecular target: T1, DNA dC->dU-editing enzyme APOBEC-3G; format: functional
[10] = molecular target: Peroxisome proliferator-activated receptor gamma/Nuclear receptor coactivator 2 (Homo sapiens, UniProt P37231); format: functional;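 note: agonist potency for raising coactivator recruitment to the receptor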
[11] = molecular target: Peroxisome proliferator-activated receptor gamma/Nuclear receptor coactivator 1 (Homo sapiens, UniProt P37231); format: functional;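 note: agonist potency as compounds enhance coactivator SRC-1 recruitment to PPARgamma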
[12] = molecular target: Peroxisome proliferator-activated receptor gamma/Nuclear receptor coactivator 3 (Homo sapiens, UniProt P37231); format: functional;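 note: agonist potency for raising coactivator recruitment to the receptor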
[13] = THP-1 cell cytotoxicity, dose response, cytotoxicity control for Vif-APOBEC3G degradation inhibitor project, THP-1 cells (AID 1117359); format: functional; details: Human immunodeficiency virus 1, THP-1
Aminopeptidase N = molecular target: T3, Aminopeptidase N (Plasmodium falciparum FcB1/Columbia, UniProt O96935); assay: P. falciparum M1AAP inhibitors, biochemical, fluorogenic H-Leu-NHMec substrate, 1536-well (AID 1445); set-up: species or system Plasmodium falciparum 3D7, 3D7
T3 sequence (O96935 whole entry): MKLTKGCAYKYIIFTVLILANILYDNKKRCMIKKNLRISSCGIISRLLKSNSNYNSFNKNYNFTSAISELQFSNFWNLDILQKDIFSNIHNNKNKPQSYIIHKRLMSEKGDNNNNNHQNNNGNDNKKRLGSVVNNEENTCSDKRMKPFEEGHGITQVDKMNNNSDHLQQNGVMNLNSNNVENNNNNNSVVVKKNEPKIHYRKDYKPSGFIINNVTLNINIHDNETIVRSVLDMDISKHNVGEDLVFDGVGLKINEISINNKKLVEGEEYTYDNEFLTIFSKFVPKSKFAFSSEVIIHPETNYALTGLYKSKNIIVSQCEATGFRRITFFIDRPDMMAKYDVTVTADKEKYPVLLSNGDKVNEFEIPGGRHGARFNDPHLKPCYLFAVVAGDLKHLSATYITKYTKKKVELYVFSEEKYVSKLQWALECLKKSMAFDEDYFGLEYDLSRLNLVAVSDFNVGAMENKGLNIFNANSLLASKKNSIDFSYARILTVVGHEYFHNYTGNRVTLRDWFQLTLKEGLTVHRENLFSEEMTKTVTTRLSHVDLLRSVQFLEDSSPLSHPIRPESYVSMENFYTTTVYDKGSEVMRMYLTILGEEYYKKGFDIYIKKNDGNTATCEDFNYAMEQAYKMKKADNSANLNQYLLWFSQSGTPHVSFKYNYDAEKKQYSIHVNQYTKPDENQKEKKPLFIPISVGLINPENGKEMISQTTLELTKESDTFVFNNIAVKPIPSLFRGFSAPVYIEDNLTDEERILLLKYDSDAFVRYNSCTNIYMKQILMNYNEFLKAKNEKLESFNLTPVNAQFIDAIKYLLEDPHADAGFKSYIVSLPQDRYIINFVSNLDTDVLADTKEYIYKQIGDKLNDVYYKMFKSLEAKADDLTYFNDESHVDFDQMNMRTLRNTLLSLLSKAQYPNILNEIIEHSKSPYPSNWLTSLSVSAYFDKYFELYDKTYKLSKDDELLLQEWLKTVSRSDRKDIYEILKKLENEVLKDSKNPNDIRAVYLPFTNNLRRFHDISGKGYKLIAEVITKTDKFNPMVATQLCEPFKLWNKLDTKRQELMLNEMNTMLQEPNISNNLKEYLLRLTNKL

[14] = molecular target: Luciferin 4-monooxygenase (Photinus pyralis, UniProt P08659); assay: Counter Screen for Luciferase-based Assay Positives. [Related pubchem assays: 620, 618, 411 ]
HT-1080 = assay: cytotoxicity in HT1080 fibrosarcoma cells, cell-based, fluorescence readout (AID 620); format: functional; details: Homo sapiens
[15] = molecular target: Glucose-6-phosphate 1-dehydrogenase (Homo sapiens, UniProt P11413); assay: human G6PD enzyme inhibitors, dose response, selectivity assay for P. falciparum G6PD inhibitor project, biochemical, fluorescence (AID 504792); format: functional
[16] = HEp-2 cell cytotoxicity, dose response, cytotoxicity control for RSV inhibitor project, HTS (AID 2410); format: functional; details: human respiratory syncytial virus

Sequence of DNA dC->dU-editing enzyme APOBEC-3A (P31941 whole entry): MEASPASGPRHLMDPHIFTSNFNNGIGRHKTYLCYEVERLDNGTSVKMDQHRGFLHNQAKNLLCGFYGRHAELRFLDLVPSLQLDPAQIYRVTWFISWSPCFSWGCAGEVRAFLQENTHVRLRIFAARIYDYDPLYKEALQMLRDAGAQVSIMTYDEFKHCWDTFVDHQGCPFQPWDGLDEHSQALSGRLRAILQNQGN
T1 sequence (Q9HC16 whole entry): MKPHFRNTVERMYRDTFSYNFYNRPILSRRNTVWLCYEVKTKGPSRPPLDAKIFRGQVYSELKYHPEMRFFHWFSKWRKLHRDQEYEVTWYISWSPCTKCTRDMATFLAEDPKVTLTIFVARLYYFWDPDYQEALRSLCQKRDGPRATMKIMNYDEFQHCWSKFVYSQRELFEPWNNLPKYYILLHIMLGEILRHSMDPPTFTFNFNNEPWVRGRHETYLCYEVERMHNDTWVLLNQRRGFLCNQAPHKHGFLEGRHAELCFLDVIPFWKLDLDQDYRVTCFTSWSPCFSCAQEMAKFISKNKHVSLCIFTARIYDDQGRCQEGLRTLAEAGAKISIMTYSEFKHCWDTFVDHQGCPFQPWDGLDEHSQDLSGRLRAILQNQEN
Sequence of Polyadenylate-binding protein 1 (P11940 whole entry): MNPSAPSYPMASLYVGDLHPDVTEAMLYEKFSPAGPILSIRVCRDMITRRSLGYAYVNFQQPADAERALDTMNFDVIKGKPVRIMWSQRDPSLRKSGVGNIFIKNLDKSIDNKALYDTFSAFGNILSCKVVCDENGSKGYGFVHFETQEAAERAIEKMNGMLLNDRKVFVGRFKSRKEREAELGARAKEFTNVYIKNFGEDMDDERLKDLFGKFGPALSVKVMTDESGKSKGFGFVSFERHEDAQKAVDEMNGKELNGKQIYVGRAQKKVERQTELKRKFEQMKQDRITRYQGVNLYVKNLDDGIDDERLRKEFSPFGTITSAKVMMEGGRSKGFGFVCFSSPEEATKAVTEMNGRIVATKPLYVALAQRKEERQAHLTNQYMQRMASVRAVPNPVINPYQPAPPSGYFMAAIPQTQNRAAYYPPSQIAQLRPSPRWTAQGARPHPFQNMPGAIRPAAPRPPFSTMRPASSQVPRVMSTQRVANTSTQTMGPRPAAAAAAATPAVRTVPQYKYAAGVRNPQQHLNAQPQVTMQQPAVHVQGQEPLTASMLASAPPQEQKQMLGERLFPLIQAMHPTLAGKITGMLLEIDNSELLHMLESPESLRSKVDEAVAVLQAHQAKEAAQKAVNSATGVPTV
Sequence of G-protein coupled receptor 55 (Q9Y2T6 whole entry): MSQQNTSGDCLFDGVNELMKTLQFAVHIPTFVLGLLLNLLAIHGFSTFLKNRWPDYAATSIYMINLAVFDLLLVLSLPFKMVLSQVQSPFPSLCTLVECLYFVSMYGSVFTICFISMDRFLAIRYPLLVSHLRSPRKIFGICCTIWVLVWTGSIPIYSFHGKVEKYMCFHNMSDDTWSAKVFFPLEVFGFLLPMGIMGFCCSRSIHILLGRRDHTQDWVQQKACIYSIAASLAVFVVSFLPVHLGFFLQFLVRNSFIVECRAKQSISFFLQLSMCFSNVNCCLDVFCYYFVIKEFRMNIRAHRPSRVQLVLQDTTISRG
Sequence of Luciferin 4-monooxygenase (P08659 whole entry): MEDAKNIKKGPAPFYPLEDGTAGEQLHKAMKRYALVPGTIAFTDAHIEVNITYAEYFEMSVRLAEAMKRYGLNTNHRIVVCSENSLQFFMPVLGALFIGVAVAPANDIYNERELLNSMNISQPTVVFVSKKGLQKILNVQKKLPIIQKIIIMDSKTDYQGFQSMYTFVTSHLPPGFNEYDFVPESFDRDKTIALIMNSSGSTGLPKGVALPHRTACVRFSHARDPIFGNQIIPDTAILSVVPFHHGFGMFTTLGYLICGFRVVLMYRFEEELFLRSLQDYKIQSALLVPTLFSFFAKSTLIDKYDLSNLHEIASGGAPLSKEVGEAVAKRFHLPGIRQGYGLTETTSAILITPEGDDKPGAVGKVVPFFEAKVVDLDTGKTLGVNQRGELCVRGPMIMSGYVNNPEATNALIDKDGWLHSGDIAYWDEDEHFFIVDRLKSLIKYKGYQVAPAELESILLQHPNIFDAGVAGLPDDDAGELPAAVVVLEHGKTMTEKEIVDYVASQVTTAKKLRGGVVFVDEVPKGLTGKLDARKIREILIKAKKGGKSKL
Sequence of Peroxisome proliferator-activated receptor gamma/Nuclear receptor coactivator 1 (P37231 whole entry): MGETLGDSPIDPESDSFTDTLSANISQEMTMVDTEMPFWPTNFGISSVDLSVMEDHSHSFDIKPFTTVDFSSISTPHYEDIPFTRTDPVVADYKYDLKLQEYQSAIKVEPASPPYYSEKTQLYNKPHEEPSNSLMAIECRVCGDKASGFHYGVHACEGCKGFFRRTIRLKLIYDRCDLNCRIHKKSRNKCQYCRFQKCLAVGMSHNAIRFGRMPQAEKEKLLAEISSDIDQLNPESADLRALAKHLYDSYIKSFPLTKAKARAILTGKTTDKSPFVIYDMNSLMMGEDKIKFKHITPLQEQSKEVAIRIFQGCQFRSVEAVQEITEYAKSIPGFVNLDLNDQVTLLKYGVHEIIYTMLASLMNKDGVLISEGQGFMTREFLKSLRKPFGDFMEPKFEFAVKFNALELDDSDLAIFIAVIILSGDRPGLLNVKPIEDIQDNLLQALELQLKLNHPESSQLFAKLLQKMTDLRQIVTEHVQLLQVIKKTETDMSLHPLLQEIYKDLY
Sequence of Peroxisome proliferator-activated receptor gamma/Nuclear receptor coactivator 1 (Q15788 whole entry, further chain): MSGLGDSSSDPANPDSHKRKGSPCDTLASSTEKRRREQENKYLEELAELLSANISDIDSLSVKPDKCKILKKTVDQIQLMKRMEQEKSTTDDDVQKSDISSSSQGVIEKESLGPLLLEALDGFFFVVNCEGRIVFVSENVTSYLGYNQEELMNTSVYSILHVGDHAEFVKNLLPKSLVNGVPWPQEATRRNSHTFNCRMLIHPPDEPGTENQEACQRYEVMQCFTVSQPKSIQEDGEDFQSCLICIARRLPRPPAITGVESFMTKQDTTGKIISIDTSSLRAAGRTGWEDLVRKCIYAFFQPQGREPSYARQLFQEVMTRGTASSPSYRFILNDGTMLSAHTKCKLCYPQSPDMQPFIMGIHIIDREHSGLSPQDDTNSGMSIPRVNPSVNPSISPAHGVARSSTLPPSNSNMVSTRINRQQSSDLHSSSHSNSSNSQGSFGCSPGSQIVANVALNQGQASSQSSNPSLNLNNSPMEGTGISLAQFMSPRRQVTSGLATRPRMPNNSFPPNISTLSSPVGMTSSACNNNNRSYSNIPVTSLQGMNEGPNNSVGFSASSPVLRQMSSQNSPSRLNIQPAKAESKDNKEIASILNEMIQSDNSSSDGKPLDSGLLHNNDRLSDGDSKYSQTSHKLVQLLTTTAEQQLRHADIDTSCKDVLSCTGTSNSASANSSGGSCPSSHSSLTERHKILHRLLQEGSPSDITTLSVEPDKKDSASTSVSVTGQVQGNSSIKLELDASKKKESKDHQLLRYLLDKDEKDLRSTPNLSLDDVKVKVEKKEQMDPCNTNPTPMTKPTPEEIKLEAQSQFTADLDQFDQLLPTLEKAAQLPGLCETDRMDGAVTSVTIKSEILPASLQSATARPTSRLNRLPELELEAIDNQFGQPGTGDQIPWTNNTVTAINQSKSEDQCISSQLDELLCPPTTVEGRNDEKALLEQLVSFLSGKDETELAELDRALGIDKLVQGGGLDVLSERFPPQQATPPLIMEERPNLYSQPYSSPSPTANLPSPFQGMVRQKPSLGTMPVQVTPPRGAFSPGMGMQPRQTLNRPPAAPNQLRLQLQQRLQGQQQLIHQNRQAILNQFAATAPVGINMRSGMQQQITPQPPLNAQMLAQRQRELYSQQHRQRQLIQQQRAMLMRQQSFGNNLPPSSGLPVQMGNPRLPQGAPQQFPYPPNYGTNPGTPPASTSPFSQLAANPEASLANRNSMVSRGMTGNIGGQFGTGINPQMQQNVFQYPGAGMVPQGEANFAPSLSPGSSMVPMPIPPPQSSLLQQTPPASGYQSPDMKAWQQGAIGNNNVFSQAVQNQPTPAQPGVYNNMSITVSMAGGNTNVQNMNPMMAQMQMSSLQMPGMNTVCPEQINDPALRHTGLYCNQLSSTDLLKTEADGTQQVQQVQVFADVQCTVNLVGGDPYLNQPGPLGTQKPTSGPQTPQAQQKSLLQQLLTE
Sequence of Glucose-6-phosphate 1-dehydrogenase (P11413 whole entry): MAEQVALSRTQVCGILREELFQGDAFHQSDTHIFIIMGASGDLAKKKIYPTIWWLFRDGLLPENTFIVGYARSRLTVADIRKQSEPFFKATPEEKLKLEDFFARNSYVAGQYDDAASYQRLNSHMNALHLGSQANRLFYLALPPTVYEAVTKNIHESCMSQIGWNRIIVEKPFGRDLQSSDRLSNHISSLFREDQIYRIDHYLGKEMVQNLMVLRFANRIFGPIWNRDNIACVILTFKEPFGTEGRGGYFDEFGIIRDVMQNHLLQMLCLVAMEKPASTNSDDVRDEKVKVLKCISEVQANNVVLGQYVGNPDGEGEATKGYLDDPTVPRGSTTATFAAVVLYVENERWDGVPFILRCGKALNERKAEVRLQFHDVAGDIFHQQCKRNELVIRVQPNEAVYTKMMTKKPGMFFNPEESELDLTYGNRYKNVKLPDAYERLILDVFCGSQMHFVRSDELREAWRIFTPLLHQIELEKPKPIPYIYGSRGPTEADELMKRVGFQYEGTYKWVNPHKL

COc1ccccc1C(=O)Nc1ccc(-c2nnc(SCC(=O)O)n2C)cc1
IC50 [1]: > 100 µM (active)

CCN1C(=NCC(C)C)N[C@@H](c2cccc(F)c2)C(C(=O)OC)=C1C
IC50 [2]: > 100 µM (inactive)
IC50 [3]: 5.33 µM (active)

O=S(=O)(Nc1ccc(O)c(NS(=O)(=O)c2ccccc2)c1)c1ccccc1
IC50 [4]: 55.1 µM (active)
AC50 [5]: 1.23 µM (active)

Cc1cc(=O)n2nc(-c3ccccc3)sc2c1C#N
IC50 [4]: 39.2 µM (active)

CCn1c(N2CCN(S(=O)(=O)CC)CC2)nc2ccccc21
EC50 [6]: 2.66 µM (active)

COc1ccc(C(=O)NC(=S)NCc2ccc(-c3nc4ccccc4o3)cc2)cc1OC
EC50 [7]: > 32 µM (inactive)

CCN1C(NCCOC)=N[C@@H](CCc2ccccc2)[C@H](C(=O)OC)[C@H]1C
IC50 [2]: > 100 µM (inactive)
IC50 [3]: 8.16 µM (active)
IC50 [8]: 3.39 µM (active)
IC50 [9]: 4.15 µM (active)

O=C(NCCNC1CCC(c2ccccc2)CC1)c1cccs1 (stereo not given)
EC50 [6]: 0.335 µM (active)

O=C1OCCC1Sc1nnc(-c2ccc(Br)cc2)o1 (stereo not given)
EC50 [10]: 75.3 µM (not active)
EC50 [11]: > 79.4 µM (not active)
EC50 [12]: > 79.4 µM (not active)

Cc1c(C=O)c2ccccc2n1Cc1ccc(F)cc1
CC50 [13]: > 40 µM (active)

O=C(NCc1ccccc1)C1CCN(S(=O)(=O)c2cccc3cccnc23)CC1
IC50 (Aminopeptidase N): 42.1 µM (active)

CC(=O)Nc1ccc2oc(-c3cc(F)c(F)cc3Cl)nc2c1
EC50 [14]: 16.2 µM (active)
EC50 (HT-1080): > 50 µM (not active)

O=C(c1ccccc1)c1cnc(-c2ccc(Cl)cc2)s1
EC50 [10]: 11.9 µM (not active)
EC50 [11]: 14.4 µM (not active)
EC50 [12]: 21.4 µM (not active)

CCn1c(SCC(=O)Nc2ccccc2C)nnc1-c1ccccc1O
EC50 [14]: > 100 µM (not active)
EC50 (HT-1080): > 50 µM (not active)

COc1ccc(F)cc1S(=O)(=O)Nc1cc2c3c(c1)CC(=O)N3CCC2
CC50 [13]: > 40 µM (active)

Cc1nnc(SCC(=O)c2cc(C)n(-c3ccc4c(c3)OCO4)c2C)s1
IC50 [15]: > 80 µM (inactive)

CC(CCc1ccccc1)NC(=O)C(Cc1ccccc1)NS(=O)(=O)c1cccs1 (stereo not given)
IC50 (Aminopeptidase N): 71.4 µM (active)

CN(C)c1cccc2c1c(NC(=O)c1ccc(F)cc1)nn2C
IC50 [15]: > 80 µM (inactive)

CCOCCCn1c(S)nnc1-c1ccc(Cl)cc1
IC50 [4]: 13.8 µM (active)

C[N+]1(C)C2CCC1CC(OC(=O)c1ccccc1)C2 (stereo not given)
IC50 [8]: 2.96 µM (active)
IC50 [9]: 1.75 µM (active)

COC(=O)C1=C(C)N(Cc2ccccc2)C(NCCCOC(C)C)=N[C@H]1c1ccccc1
IC50 [8]: 3.37 µM (active)
IC50 [9]: 5.12 µM (active)

CCS(=O)(=O)N1CCC(C(=O)NCc2ccccn2)CC1
IC50 [1]: > 100 µM (active)

COc1ccccc1NC(=O)COC(=O)c1c(NC(C)=O)sc(C)c1C
CC50 [13]: > 40 µM (active)

CCOc1ccccc1/N=C1/SCCCN1C
IC50 [2]: > 100 µM (inactive)
IC50 [3]: 4.4 µM (active)

CCOc1cc(C2Nc3cccc4cccc(c34)N2)ccc1O
CC50 [16]: 20.2 µM (active)
EC50 [7]: 8.01 µM (active)
